Data as given in patent publication US20100287636A1, “COMPOSITIONS AND METHODS FOR INHIBITING INDUCIBLE T CELL KINASE (ITK) AND TREATING ASTHMA AND BRONCHIAL INFLAMMATIONS” (San Diego State University Foundation, dba San Diego State …, priority 2007, published 2010).
Each block holds one molecule with its values, some of them ahead of it. No end group written: not given here.

Columns and labels:
ITK-SLP76 interaction = molecular target: T1, ITK-SLP76 interaction (Homo sapiens, UniProt Q08881); assay: inhibition of inducible ITK-SLP76 association in stimulated Jurkat cells (co-immunoprecipitation); type: cell-based
T1 construct: endogenous in cells; host or cells: Jurkat T cells
T1 sequence (Q08881 1-620): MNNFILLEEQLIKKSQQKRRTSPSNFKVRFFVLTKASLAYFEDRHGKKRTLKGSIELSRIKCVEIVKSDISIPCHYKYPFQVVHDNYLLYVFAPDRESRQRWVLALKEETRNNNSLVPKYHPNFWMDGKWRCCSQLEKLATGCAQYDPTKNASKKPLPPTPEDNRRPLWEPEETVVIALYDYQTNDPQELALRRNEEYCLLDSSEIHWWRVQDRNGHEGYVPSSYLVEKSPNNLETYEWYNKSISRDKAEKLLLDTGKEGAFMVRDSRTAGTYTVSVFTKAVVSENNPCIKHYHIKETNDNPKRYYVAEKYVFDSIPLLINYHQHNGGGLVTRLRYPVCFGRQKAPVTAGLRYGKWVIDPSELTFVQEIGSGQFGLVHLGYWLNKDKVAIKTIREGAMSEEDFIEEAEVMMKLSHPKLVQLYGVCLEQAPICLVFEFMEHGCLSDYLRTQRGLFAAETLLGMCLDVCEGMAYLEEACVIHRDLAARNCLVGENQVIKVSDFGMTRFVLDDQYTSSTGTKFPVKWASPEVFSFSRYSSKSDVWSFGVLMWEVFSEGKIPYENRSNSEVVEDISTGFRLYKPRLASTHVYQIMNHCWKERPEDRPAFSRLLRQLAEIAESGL
Protocol: (§1) FIG. 1. Inducible Association between ITK and SLP76: Jurkat T cells were stimulated through their TCR for various periods of time and then lysed. Lysates were treated with antibody to SLP-76 (IP: anti-SLP76) and the immune complexes were resolved by gel electrophoresis. The resolved proteins were transferred onto a membrane where ITK and SLP76 were visualized by probing with specific antibodies reactive with these proteins. First, ITK was probed (IB: anti-ITK) and subsequently SLP76 (IB: anti-SLP76). […] The interpretation is that ITK and SLP76 participate in a stimulation inducible signaling complex. Furthermore, the association of ITK and SLP76 in this complex is time dependent. It happens at one (1) minute post stimulation and then the two proteins dissociate.
(§2) FIG. 4. Inhibition of ITK-SLP76 inducible association by the polyArg-SLP76 peptide conjugate of the invention: We next addressed the important question of whether the presence of the exemplary SLP76 peptide of the invention disrupts the physical association between ITK and SLP76. Jurkat cells were stimulated as described under FIG. 1 above in the presence or absence of various concentrations of the exemplary Arg-conjugated SLP76 peptide of the invention. […] This index was calculated by correcting the ITK signals for the total of SLP 76 signal in each lane and then calculating the ratio over the non-stimulated control. […]

ITK [1] = molecular target: T2, ITK (Mus musculus, UniProt Q03526); assay: phosphorylation of ITK on Tyr 511 in mouse splenocytes (flow cytometry); type: cell-based; conditions: text does not separate Jurkat and mouse splenocytes, read-out: peptide concentration for fifty percent inhibition of ITK phosphorylation
T2 construct: endogenous in cells; host or cells: primary mouse splenic lymphocytes
T2 sequence (Q03526 1-625): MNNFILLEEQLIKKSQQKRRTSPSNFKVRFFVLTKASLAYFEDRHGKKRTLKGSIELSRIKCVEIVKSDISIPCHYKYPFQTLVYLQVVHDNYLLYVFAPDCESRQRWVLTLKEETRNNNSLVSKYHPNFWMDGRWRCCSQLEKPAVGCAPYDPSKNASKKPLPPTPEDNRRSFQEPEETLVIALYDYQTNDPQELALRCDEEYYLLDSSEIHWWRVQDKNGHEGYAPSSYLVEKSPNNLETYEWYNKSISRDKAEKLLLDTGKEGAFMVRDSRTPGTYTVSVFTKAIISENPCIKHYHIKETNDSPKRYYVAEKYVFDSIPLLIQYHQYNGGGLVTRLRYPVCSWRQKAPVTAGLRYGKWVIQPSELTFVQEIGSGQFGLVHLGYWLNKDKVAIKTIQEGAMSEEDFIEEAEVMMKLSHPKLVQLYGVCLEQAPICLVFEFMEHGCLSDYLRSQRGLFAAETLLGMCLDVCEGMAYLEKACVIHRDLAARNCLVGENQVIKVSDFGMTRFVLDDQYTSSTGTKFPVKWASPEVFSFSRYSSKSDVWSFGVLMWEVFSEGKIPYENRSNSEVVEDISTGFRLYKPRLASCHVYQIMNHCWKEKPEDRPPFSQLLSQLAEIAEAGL
Description: In view of the significant degree of ITK-SLP 76 inhibition mediated by the exemplary arginine-SLP 76 peptide conjugate of the invention, henceforth called R9-QQP, the next question was whether the exemplary R9-QQP peptide can inhibit the phosphorylation of ITK. This is important because it represents an accurate index of ITK activity; see e.g., referenced (14), below. Furthermore, the data described above have been performed by using the Jurkat T cell line. Even though this is a very useful cellular model for research, it is a leukemic cell line and thus, data obtained with this model should be confirmed in a more normal physiological substrate. Therefore, we also tested the effect of R9-QQP on primary mouse splenic lymphocytes.
(§3) FIG. 6. […] Following stimulation the cells were stained with specific anti-ITK phosphotyrosine antibodies obtained from a commercial source (BD Biosciences) and following the manufacturer's instructions for intracytoplasmic staining. The stained samples were analyzed in a flow cytometer and the percent phosphorylation related to control (100%) was quantified. […] Fifty percent inhibition was achieved by approximately 1 μM peptide

SH3 domain of ITK = molecular target: T3, SH3 domain of ITK (Mus musculus, UniProt Q03526); conditions: chemical shift perturbation assays, reference (17); read-out: Kd of the in vitro interaction between peptide and the SH3 domain of ITK; cited from earlier work
T3 sequence (Q03526 177-237 limits assumed): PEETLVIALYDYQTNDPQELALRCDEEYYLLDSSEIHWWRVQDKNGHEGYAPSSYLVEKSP

ITK [2] = molecular target: T4, ITK (Homo sapiens, UniProt Q08881); assay: phosphorylation of ITK on Tyr 511 in Jurkat cells (flow cytometry); type: cell-based; conditions: text does not separate Jurkat and mouse splenocytes, read-out: peptide concentration for fifty percent inhibition of ITK phosphorylation
T4 construct: endogenous in cells; host or cells: Jurkat T cells
T4 sequence (Q08881 1-620): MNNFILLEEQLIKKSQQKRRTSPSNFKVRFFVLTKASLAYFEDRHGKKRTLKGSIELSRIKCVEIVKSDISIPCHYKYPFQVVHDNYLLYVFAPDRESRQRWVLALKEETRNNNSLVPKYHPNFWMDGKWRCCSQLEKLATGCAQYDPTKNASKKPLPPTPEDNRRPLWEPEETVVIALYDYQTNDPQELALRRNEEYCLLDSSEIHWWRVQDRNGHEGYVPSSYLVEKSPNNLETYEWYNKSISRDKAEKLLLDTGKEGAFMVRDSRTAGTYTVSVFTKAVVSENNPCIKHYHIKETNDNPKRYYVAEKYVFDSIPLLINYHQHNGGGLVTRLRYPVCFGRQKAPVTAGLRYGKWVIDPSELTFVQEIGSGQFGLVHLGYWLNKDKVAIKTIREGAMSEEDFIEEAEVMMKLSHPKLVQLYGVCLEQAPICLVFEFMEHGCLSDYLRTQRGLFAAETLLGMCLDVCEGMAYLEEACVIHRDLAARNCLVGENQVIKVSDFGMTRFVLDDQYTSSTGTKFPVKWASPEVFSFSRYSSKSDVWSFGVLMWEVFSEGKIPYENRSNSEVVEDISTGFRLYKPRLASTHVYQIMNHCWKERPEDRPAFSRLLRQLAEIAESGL
Protocol: as §3

Jurkat cells = assay: viability measurements on Jurkat cells; type: cell-based; conditions: highest concentration tested
[3] = molecular target: T5, R9 (nine Arginine amino acids by themselves)
T5 chain: RRRRRRRRR

[4] = molecular target: R9-Scrambled arginine-SLP 76 peptide conjugate (R9-SCR)
[5] = molecular target: T6, Inducible T cell Kinase (ITK), endogenous in Jurkat T cells (human, UniProt Q08881 1-620); assay: competition in cells: co-IP of ITK with SLP76 from stimulated Jurkat cells against peptide concentration (association index, average of three experiments)
T6 construct: Endogenous intracellular ITK from Jurkat T cell lysates; The tie rests on Jurkat being a human T cell line
T6 sequence: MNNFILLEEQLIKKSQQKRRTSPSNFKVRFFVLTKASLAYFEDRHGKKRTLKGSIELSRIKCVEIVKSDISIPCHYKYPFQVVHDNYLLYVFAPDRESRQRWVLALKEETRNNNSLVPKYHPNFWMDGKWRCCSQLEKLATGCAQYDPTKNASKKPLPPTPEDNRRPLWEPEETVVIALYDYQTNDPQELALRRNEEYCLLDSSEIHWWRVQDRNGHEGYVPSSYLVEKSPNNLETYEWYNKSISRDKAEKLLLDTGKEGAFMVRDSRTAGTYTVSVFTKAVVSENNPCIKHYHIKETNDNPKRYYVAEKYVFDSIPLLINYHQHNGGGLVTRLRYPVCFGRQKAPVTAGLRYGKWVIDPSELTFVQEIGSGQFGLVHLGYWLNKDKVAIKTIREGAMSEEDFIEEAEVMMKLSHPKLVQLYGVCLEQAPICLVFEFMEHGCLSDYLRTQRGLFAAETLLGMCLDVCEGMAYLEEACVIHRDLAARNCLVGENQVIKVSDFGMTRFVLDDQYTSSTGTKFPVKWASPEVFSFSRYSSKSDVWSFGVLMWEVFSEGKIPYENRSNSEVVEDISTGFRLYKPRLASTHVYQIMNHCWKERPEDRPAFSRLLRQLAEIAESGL
Protocol: as §1, §2

[6] = molecular target: T6, Inducible T cell Kinase (ITK), …; assay: co-IP from TCR-stimulated Jurkat T cell lysates (IP anti-SLP76, IB anti-ITK)
Protocol: as §1

inhibition at 1 µM (ITK-SLP76 interaction; 1 μM of peptide, Jurkat cells stimulated 1 minute): ~50%
IC50 (ITK-SLP76 interaction; Jurkat cells, read-out: concentration for 50% inhibition in the ITK-SLP 76 association): ~1 µM
IC50 (ITK [1]): ~1 µM
IC50 (ITK [2]): ~1 µM
Molecule: RRRRRRRRRQQPPVPPQRPMA [R9-QQP]
Kd (SH3 domain of ITK): 0.77 µM
toxic effects on Jurkat cells (viability) (Jurkat cells): no toxic effects

B1: ITK, endogenous in mouse splenic lymphocytes (protein)
chain: MNNFILLEEQLIKKSQQKRRTSPSNFKVRFFVLTKASLAYFEDRHGKKRTLKGSIELSRIKCVEIVKSDISIPCHYKYPFQTLVYLQVVHDNYLLYVFAPDCESRQRWVLTLKEETRNNNSLVSKYHPNFWMDGRWRCCSQLEKPAVGCAPYDPSKNASKKPLPPTPEDNRRSFQEPEETLVIALYDYQTNDPQELALRCDEEYYLLDSSEIHWWRVQDKNGHEGYAPSSYLVEKSPNNLETYEWYNKSISRDKAEKLLLDTGKEGAFMVRDSRTPGTYTVSVFTKAIISENPCIKHYHIKETNDSPKRYYVAEKYVFDSIPLLIQYHQYNGGGLVTRLRYPVCSWRQKAPVTAGLRYGKWVIQPSELTFVQEIGSGQFGLVHLGYWLNKDKVAIKTIQEGAMSEEDFIEEAEVMMKLSHPKLVQLYGVCLEQAPICLVFEFMEHGCLSDYLRSQRGLFAAETLLGMCLDVCEGMAYLEKACVIHRDLAARNCLVGENQVIKVSDFGMTRFVLDDQYTSSTGTKFPVKWASPEVFSFSRYSSKSDVWSFGVLMWEVFSEGKIPYENRSNSEVVEDISTGFRLYKPRLASCHVYQIMNHCWKEKPEDRPPFSQLLSQLAEIAEAGL
ITK Tyr 511 phosphorylation, flow cytometry, primary mouse splenic lymphocytes [3]: None of the two control peptides had significant effects on the phosphorylation of ITK in either Jurkat or primary mouse splenic lymphocytes
ITK Tyr 511 phosphorylation, flow cytometry, primary mouse splenic lymphocytes [4]: None of the two control peptides had significant effects on the phosphorylation of ITK in either Jurkat or primary mouse splenic lymphocytes

IC50 [5]: ~1 µM
B2: R9-QQP, arginine-SLP76 peptide conjugate RRRRRRRRRQQPPVPPQRPMA (peptide)
peptide: RRRRRRRRRQQPPVPPQRPMA
notes: Synthetic cell-penetrating peptide; It was loaded into Jurkat cells or mouse splenocytes, or injected intraperitoneally into mice; A fluorescein-labelled version was used only for uptake studies, which are not recorded; also called Arg-SLP76 conjugate peptide; polyArg-SLP76 peptide conjugate

binding result [6]: binds
B3: SLP76, endogenous in Jurkat T cells (other, UniProt Q13094 1-533, looked up)
chain: MALRNVPFRSEVLGWDPDSLADYFKKLNYKDCEKAVKKYHIDGARFLNLTENDIQKFPKLRVPILSKLSQEINKNEERRSIFTRKPQVPRFPEETESHEEDNGGWSSFEEDDYESPNDDQDGEDDGDYESPNEEEEAPVEDDADYEPPPSNDEEALQNSILPAKPFPNSNSMYIDRPPSGKTPQQPPVPPQRPMAALPPPPAGRNHSPLPPPQTNHEEPSRSRNHKTAKLPAPSIDRSTKPPLDRSLAPFDREPFTLGKKPPFSDKPSIPAGRSLGEHLPKIQKPPLPPTTERHERSSPLPGKKPPVPKHGWGPDRRENDEDDVHQRPLPQPALLPMSSNTFPSRSTKPSPMNPLPSSHMPGAFSESNSSFPQSASLPPYFSQGPSNRPPIRAEGRNFPLPLPNKPRPPSPAEEENSLNEEWYVSYITRPEAEAALRKINQDGTFLVRDSSKKTTTNPYVLMVLYKDKVYNIQIRYQKESQVYLLGTGLRGKEDFLSVSDIIDYFRKMPLLLIDGKNRGSRYQCTLTHAAGYP
notes: whole, on cells; Endogenous intracellular adaptor protein, immunoprecipitated from Jurkat lysates with anti-SLP76 antibody
